Measured values from PubChem BioAssay (NCI).
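Cells were grown in 96-well plates and exposed to each compound for 48 hours at five concentrations; endpoints were interpolated linearly between bracketing concentrations, or set to the highest concentration if not reached. The concentration for full growth arrest is given as TGI.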

What was measured:
Test in all cases: inhibition of tumour cell growth, NCI panel, 48 h
[1] = test system: 786-0 renal
[2] = test system: A549 NSCLC
[3] = test system: CAKI-1 renal
[4] = test system: CCRF-CEM leukemia
[5] = test system: COLO 205 colon
[6] = test system: EKVX NSCLC
[7] = test system: HS 578T breast
[8] = test system: IGROV1 ovarian
[9] = test system: K-562 leukemia
[10] = test system: MDA-MB-435
[11] = test system: MDA-N
[12] = test system: MOLT-4 leukemia
[13] = test system: NCI-H23 lung
[14] = test system: OVCAR-8 ovarian
[15] = test system: RPMI-8226 leukemia
[16] = test system: SF-268 CNS
[17] = test system: SK-MEL-2 melanoma
[18] = test system: SK-OV-3 ovarian
[19] = test system: SN12C renal
[20] = test system: SR leukemia

SMILES	TGI [1] [µM]	TGI [2] [µM]	TGI [3] [µM]	TGI [4] [µM]	TGI [5] [µM]	TGI [6] [µM]	TGI [7] [µM]	TGI [8] [µM]	TGI [9] [µM]	TGI [10] [µM]	TGI [11] [µM]	TGI [12] [µM]	TGI [13] [µM]	TGI [14] [µM]	TGI [15] [µM]	TGI [16] [µM]	TGI [17] [µM]	TGI [18] [µM]	TGI [19] [µM]	TGI [20] [µM]
Cc1ccc(Nc2cc(=O)[nH]c(=O)[nH]2)cc1CS	> 100	> 100	> 100	> 100	> 100	> 100	> 100	> 100	> 100	> 100	> 100	> 100	> 100	> 100	> 100	> 100	> 100	> 100	> 100	> 100
CCN(CC)c1nc(=O)c(C(=O)C(C)(C)C)c(C(C)(C)C)o1	> 100	> 100	> 100	> 100	> 100	> 100	> 100	> 100	> 100	> 100	> 100	> 100	> 100	> 100	> 100	> 100	> 100	> 100	> 100	> 100
N#Cc1nc(C2SCCCS2)oc1N	> 100	> 100	> 100	> 100		> 100	> 100	> 100	> 100	> 100	> 100	> 100		> 100	> 100	> 100	> 100	> 100	> 100	> 100
O=C1c2ccccc2-n2c1nc1cc(Cl)ccc1c2=O	> 100	> 100	> 100	9.2	> 100	> 100	> 100	> 100	> 100	4.23	29.1	> 100	> 100	> 100	> 100	> 100	> 100	> 100	> 100	> 100
COC(=O)CCSC1=CC(=O)c2nc3ccccc3c3ccnc1c23	40.2	> 100	42.5	> 26.6	> 47	40.7	67.8	34.5	> 42	> 27.5	87.2	50.4	32	> 56.3	> 100	34.3	> 70.1	> 100	40.7	> 51.5
Cc1ccc(C2SC(N)=Nc3c2c(C)nn3C(=O)c2ccc(Cl)cc2)cc1 (stereo not drawn)	> 10	> 10	> 10	> 10	> 10	> 10	> 10	> 10	> 10	> 10	> 10	> 10	> 10	> 10	> 10	> 10	> 10	> 10	> 10	> 10
Nc1nc(NCC2(CO)CC(CCc3ccccc3)C2)cc(=O)[nH]1 (stereo not drawn)	> 100	> 100	> 100	> 100	> 100	> 100	> 100	> 100	> 100	> 100	> 100	> 100	> 100	> 100	> 100	> 100	> 100	80.6	> 100	> 100
Nc1ccc(-c2nc3ccccc3s2)cc1I	> 100	> 100	> 100	> 46.4	> 100	> 100	> 100	> 100	> 100	> 100	> 100	> 46.4	> 100	> 100	> 100	> 100	> 100	> 100	> 100	> 100
O=c1[nH]cnc2c1ncn2C1SC(CO)C(O)C1O (stereo not drawn)	> 100	> 100	> 100	> 100	> 100	> 100	> 100	> 100	> 100	> 100	> 100	> 100	> 100	> 100	> 100	> 100	> 100	> 100	> 100	> 100
O=C1CSC(c2ccccc2[N+](=O)[O-])N1c1ccc(-n2c(-c3ccccc3)nc3ccccc3c2=O)cc1 (stereo not drawn)	> 100	> 100	> 100	> 100	> 100	> 100	54.8	> 100	> 100	> 100	> 100	> 100	> 100	> 100	> 100	> 100	> 100	28.3	> 100	> 100
O=C1C(Cl)C(c2cccc(Br)c2)N1c1c(O)c(Cl)cc(Br)c1Cl (stereo not drawn)	> 100	40	81.1	41.3	20.8	39	24	10.7	37.1	31.1	53.3	35.7	37.9	> 100	37.9	44.3	25	55.8	28.3	56.3
CCCCCCCCCCCCCCCCNc1ccc2c(c1)OCCOCCOCCOCCO2	13.8	14.5	13.6	7.62	3.18	14.4	9.1	9.41	10.7	11.1	12.8	6.19	11.5	10.8	4.49	11.9	4.44	9.49	10.5	8.14
